Results: patent US5436343A, “Alkenecarboxylic acid compounds” (Adir et Compagnie, priority 1992, dated 1995)
Counter-ions that a name gives are not always drawn.

Key:
[1] = target: T1, guinea pig trachea (contractions caused by U46619) (Cavia porcellus, UniProt A0A286Y4I8); assay: pA2 on guinea pig trachea (U46619-induced contraction); type: cell-based; settings: guinea pig tracheal rings; U46619 10^-9 M to 10^-5 M; antagonist contact 20 minutes
T1 sequence (A0A286Y4I8 1-347): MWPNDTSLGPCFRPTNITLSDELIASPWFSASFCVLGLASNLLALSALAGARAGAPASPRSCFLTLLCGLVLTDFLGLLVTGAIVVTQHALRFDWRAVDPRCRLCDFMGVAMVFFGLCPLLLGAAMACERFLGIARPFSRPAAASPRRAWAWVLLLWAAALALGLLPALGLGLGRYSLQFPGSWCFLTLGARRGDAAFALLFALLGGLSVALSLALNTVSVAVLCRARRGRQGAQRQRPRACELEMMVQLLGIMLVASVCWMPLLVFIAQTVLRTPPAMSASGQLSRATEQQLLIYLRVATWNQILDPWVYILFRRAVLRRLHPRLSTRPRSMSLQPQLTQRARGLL

[2] = system: Dog platelets (aggregation induced by U46619+adrenaline); assay: Platelet aggregation in dogs (U46619 + adrenaline, PRP); type: cell-based; settings: Canis lupus familiaris, adrenaline 10 μM then U46619 1.2 μM, 3 min preincubation, 37° C., read-out: IC50 (50% inhibition of the aggregation responses to U46619+adrenaline)
Procedure: Platelet Aggregation in Dogs
After anesthesia of the animal with pentobarbital sodium (30 mg/kg i.v.), arterial blood is withdrawn onto sodium citrate (0.109M) (1 vol. of citrate per 9 vol. of blood). Platelet-rich plasma (PRP) is obtained after centrifugation (20° C.) at 200 g for 10 minutes. The number of platelets in the PRP is 300,000 PL/mm^3 on average. The PRP is stored at the temperature of the room until the time of the test, and is used within 4 hours following withdrawal from the animal.
Dog platelets respond weakly to U46619 alone. […] The PRP is incubated at 37° C. in the presence of the test antagonist for 3 minutes. Aggregation is then obtained by the addition of adrenaline (10 μM) followed by that of U46619 (1.2 μM) 30 seconds later. The effect of the antagonists is measured, and the IC50 is determined as the concentration of the antagonist needed to produce a 50% inhibition of the aggregation responses to U46619+adrenaline.

[3] = system: tracheal pressure in guinea pigs (bronchoconstriction caused by U46619); assay: IC50 on tracheal pressure in guinea pigs (U46619-induced bronchoconstriction); type: in vivo, guinea pig; settings: Cavia porcellus, iv, 5 min; anesthetized guinea pigs; U46619 2 μg/kg i.v.; antagonist injected 5 minutes before U46619; read-out: IC50 (dose of antagonist that inhibits by 50% the increase in tracheal pressure caused by U46619)
Excerpt: ICso on Tracheal Pressure in Guinea Pigs
Male albino guinea pigs (350-400 g) subjected to an 18-hour water diet are anesthetized with ethyl carbamate (1.25 g/kg i.p.). A catheter is introduced into the carotid artery in order to measure the arterial blood pressure by means of a pressure cell. A second catheter is introduced into the jugular vein and is used to inject the pharmacological substances. The trachea is cannulated and the guinea pig is placed in assisted respiration by means of a respirator. The animal's temperature is maintained at 37° C. using a thermostatic blanket. A needle pushed in the tracheal cannula is connected to a pressure cell and enables the tracheal pressure to be recorded.
The guinea pigs are pretreated with d-tubocurarine (1 mg/kg i.v.) and with indomethacin (10 mg/kg i.v.). When injected at a dose of 2 μg/kg i.v., U46619 causes a bronchoconstriction which leads to an increase in tracheal pressure and induces an increase in arterial blood pressure. The responses to U46619 are reversible and reproducible if the injections are carried out every 10 minutes.
The thromboxane receptor antagonists are injected 5 minutes before the injections of U46619. The dose of antagonist that inhibits by 50% the increase in tracheal pressure caused by U46619 is determined (IC50).

[4] = system: platelets (aggregation induced by U46619); assay: Platelet aggregation in man (U46619-induced, PRP); type: cell-based; settings: human PRP, procedure of Example 22 (U46619 1.2 μM), read-out: IC50 (50% inhibition of platelet aggregation induced by U46619)
Procedure: (§1) Platelet aggregation is carried out at 37° C. in siliconed glass tubes using an aggregometer. The PRP and the PL are stirred at 1000 rpm (revolutions per minute). In order to study the activity of thromboxane antagonists, the PRP is incubated for 1 min at 37° C., and the antagonist is then added for a period of 3 min before addition of the agonist U46619 (1.2 μM). The final volume in the measuring cell is then 250 μl. The intensity of platelet aggregation is established by taking the maximum amplitude of aggregation plots and is expressed as a percentage light transmission (% T). The activity of the antagonists is expressed as IC50, that is to say the concentration of the substance which induces a 50% inhibition of the aggregation response induced by U46619.
Platelet Aggregation in Man
Venous blood is obtained from human volunteers who have not taken aspirin for at least 14 days prior to the experiment. The blood is withdrawn onto sodium citrate (0.109M) (1 vol. of citrate to 9 vol. of blood). Platelet-rich plasma (PRP) is obtained after centrifugation (20° C.) at 200 g for 10 minutes. The number of platelets is 250,000 PL/mm^3 on average. The PRP is stored at the temperature of the room until the time of the test, and is used within 2 hours following withdrawal from the subject. The antagonists are tested according to the procedure described in Example 22.

[5] = system: platelets (aggregation induced by U46619, a TXA2 receptor agonist); assay: Platelet aggregation in rabbits (U46619-induced, PRP); type: cell-based; settings: Oryctolagus cuniculus, 0.05 h, rabbit PRP, U46619 1.2 μM, antagonist 3 min before agonist, 37° C., read-out: IC50 (50% inhibition of the aggregation response induced by U46619)
Procedure: Platelet Aggregation in Rabbits
Rabbits (2-3 kg) are anesthetized with pentobarbital sodium (30 mg/kg i.v.). After cannulation of the left carotid artery, blood is withdrawn onto sodium citrate (0.109M) (1 vol. of citrate per 9 vol. of blood). Platelet-rich plasma (PRP) is obtained by centrifugation (20° C.) at 250 g for 20 minutes, and platelet-poor plasma (PPP) by centrifugation at 1000 g (10 min). The number of platelets (PL) in the PRP is adjusted to 300-350,000 PL/mm^3 by dilution with autologous PPP. The PRP is stored at the temperature of the room until the time of the test, and is used within 4 hours following withdrawal from the animal.
as §1, with “The activity of the antagonists is expressed as IC50, that is to say the concentration of the substance which induces a 50% inhibition of the aggregation response induced by U46619.” left out

With `O=C(O)CCC/C=C\CC1(CCNS(=O)(=O)c2ccc(Cl)cc2)CCCCC1` [Example 1, (5Z)-10-[(4-Chlorophenyl)sulfonamido]-8,8-pentamethylene-5-decenoic acid sodium salt] the Kb [1] was 0.398 nM, the IC50 [2] was 140 nM and the ED50 [3] was 0.027 mg/kg.
`O=C(O)CC/C=C\CC1(CCNS(=O)(=O)c2ccc(Cl)cc2)CCc2ccccc21` (stereo not drawn) [sodium salt] was tested, and the Kb [1] was 3.98 nM.
`O=C(O)CCC/C=C\CC1(CCNS(=O)(=O)c2ccc(Cl)cc2)CCCC1` [Example 12, (5Z)-10-[(4-Chlorophenyl)sulfonamido]-8,8-tetramethylene-5-decenoic acid sodium salt] was tested, and the Kb [1] was 1.05 nM, the IC50 [2] was 150 nM and the IC50 [4] was 500 nM. It also gave an ED50 [3] of 0.009 mg/kg.
`O=C(O)CCC/C=C\CCC1(NS(=O)(=O)c2ccc(Cl)cc2)CCCC1` [Example 11, (5Z)-9-[(4-Chlorophenyl)sulfonamido]-9,9-tetramethylene-5-nonenoic acid sodium salt] showed a Kb [1] of 20 nM.
In the case of `O=C(O)CC/C=C\CCC1(CNS(=O)(=O)c2ccc(Cl)cc2)CCCC1` [Example 9, (4Z)-9-[(4-Chlorophenyl)sulfonamido]-8,8-tetramethylene-4-nonenoic acid sodium salt], the Kb [1] is reported as 0.832 nM, the IC50 [4] is reported as 200 nM and the ED50 [3] is reported as 0.011 mg/kg.
`O=C(O)CCC/C=C\CC1(CNS(=O)(=O)c2ccc(Cl)cc2)CCCC1` [Example 8, (5Z )-9-[(4-Chlorophenyl)sulfonamido]-8,8-tetramethylene-5-nonenoic acid sodium salt] gave a Kb [1] of 0.234 nM, an IC50 [4] of 300 nM and an ED50 [3] of 0.007 mg/kg.
In the case of `O=C(O)CC/C=C\CC1(CCNS(=O)(=O)c2ccc(Cl)cc2)CCCC1` [Example 3, (4Z)-9-[(4-Chlorophenyl)sulfonamido]-7,7-tetramethylene-4-nonenoic acid sodium salt], the Kb [1] is reported as 0.501 nM, the IC50 [2] is reported as 60 nM and the IC50 [4] is reported as 80 nM. It also gave an ED50 [3] of 0.019 mg/kg.
In the case of `O=C(O)CC/C=C\CC1(CCNS(=O)(=O)c2ccc(Cl)cc2)CCCCC1` [Example 2, (4Z ) -9-[(4-Chlorophenyl)sulfonamido]-7 , 7-pentamethylene-4-nonenoic acid sodium salt], the Kb [1] is reported as 3.98 nM, the IC50 [5] is reported as 200 nM and the IC50 [2] is reported as 120 nM. The IC50 [4] was 200 nM and the ED50 [3] was 0.12 mg/kg.
In the case of `O=C(O)CC/C=C\CC1(CNS(=O)(=O)c2ccc(Cl)cc2)CCCC1` [Example 6, (4Z) -8-[(4-Chlorophenyl)sulfonamido]-7,7-tetramethylene-4-octenoic acid sodium salt], the Kb [1] is reported as 0.724 nM, the IC50 [5] is reported as 200 nM and the IC50 [4] is reported as 80 nM. The ED50 [3] was 0.021 mg/kg.
Work on `Cc1ccc(S(=O)(=O)NCCC2(C/C=C\CCCC(=O)O)CCCCC2)cc1` [Example 4, (5Z)-10-[(4-Methylphenyl)sulfonamido]-8,8-pentamethylene-5-decenoic acid sodium salt] yielded a Kb [1] of 3.16 nM, an IC50 [2] of 200 nM and an ED50 [3] of 0.105 mg/kg.
Compound `O=C(O)CC/C=C\CCC1(CCNS(=O)(=O)c2ccc(Cl)cc2)CCCC1` [Example 14, (4Z )-10-[(4-Chlorophenyl)sulfonamido]-8,8-tetramethylene-4-decenoic acid sodium salt] has an IC50 [4] of 800 nM.
Work on `O=C(O)CC/C=C\CC1(CNS(=O)(=O)c2ccc(Cl)cc2)CCCCC1` [Example 7, (4Z)-8-[(4-Chlorophenyl)sulfonamido]-7,7-pentamethylene-4-octenoic acid sodium salt] yielded a Kb [1] of 0.398 nM, an IC50 [4] of 300 nM and an ED50 [3] of 0.02 mg/kg.
Compound `O=C(O)CC/C=C\CCC1(NS(=O)(=O)c2ccc(Cl)cc2)CCCC1` [Example 10, (4Z)-8-[(4-Chlorophenyl)sulfonamido]-8,8-tetramethylene-4-octenoic acid sodium salt] has a Kb [1] of 22.4 nM.
Compound `O=C(O)CCC/C=C\CC1(CCNS(=O)(=O)c2ccc(Br)cc2)CCCCC1` [Example 5, (5Z)-10-[(4-Bromophenyl)sulfonamido]-8,8-pentamethylene-5-decenoic acid sodium salt] has a Kb [1] of 6.31 nM, an IC50 [2] of 140 nM and an ED50 [3] of 0.066 mg/kg.
